From US20250213530A1 (GH RESEARCH IRELAND LIMITED, priority 2022, published 2025)

Experiments:
[1] = test system: patient with postpartum depression (PPD); experiment: Clinical trial of inhaled 5-MeO-DMT, safety and tolerability; type: in vivo, human; conditions: one PPD patient
Source text: (§1) The patient completed all planned visit days.

[2] = test system: patient with postpartum depression (PPD); experiment: Clinical trial of inhaled 5-MeO-DMT (IDR, 6 mg then 12 mg), Barkin Index of Maternal Functioning (BIMF); type: in vivo, human; conditions: one PPD patient
Source text: Maternal functioning can, for instance, be assessed using the Barkin Index of Maternal Functioning (BIMF). This index was designed to measure functioning in the year after childbirth. The BIMF is a 20-item self-report measure of functioning. Each item is assigned a score between 0 and 6 so that the maximum total score is 120. The higher the score, the better maternal functioning is rated.
The BIMF identifies the key functional domains of a mother during the postnatal period as: self-care, infant care, mother-child interaction, psychological wellbeing of the mother, social support, management, and adjustment.
as §1

[3] = test system: patient with postpartum depression (PPD); experiment: Clinical trial of inhaled 5-MeO-DMT (IDR, 6 mg then 12 mg), BPRS; type: in vivo, human; conditions: one PPD patient, baseline 6
Source text: as §1

[4] = Pharmacokinetics after inhalation of 5-MeO-DMT, LC-MS/MS
[5] = test system: patient with postpartum depression (PPD); experiment: Clinical trial of inhaled 5-MeO-DMT (IDR, 6 mg then 12 mg), MADRS; type: in vivo, human; conditions: one PPD patient; for Total MADRS improvement / Total MADRS score: baseline 29
Source text: as §1

Compound: COc1ccc2[nH]cc(CCN(C)C)c2c1 [5-MeO-DMT]
- ECG (at 3 hours), safety laboratory analyses (at 7 days), CADSS (at 3 hours, 1 day and 7 days) [1]: unremarkable
- reported adverse events (cramping left abdominal pain and headache, both on Day 0) [1]: mild, short-lasting and resolved spontaneously
- tolerability of the inhalation procedure [1]: well tolerated with no inhalation-related adverse events
- changes in vital parameters ([1]; shortly after administration, no other noteworthy changes): temporary, clinically non-relevant increase in heart rate and blood pressure
- BIMF item 19 (As time goes on, I am getting better at taking care of my baby) score ([2]; Day 7, Day 0 score 0): 1
- BIMF item 16 (I worry about how other people judge me (as a mother)) score ([2]; Day 7, Day 0 score 3): 5
- BIMF item 13 (I am taking good care of my physical needs) score ([2]; Day 7, Day 0 score 4): 5
- BIMF item 5 (I am able to relax and enjoy time with my baby) score ([2]; Day 7, Day 0 score 5): 6
- BIMF item 9 (I am getting enough encouragement from other people) score ([2]; Day 7, Day 0 score 5): 6
- BIMF item 10 (I trust my own feelings (instincts) when it comes to taking care of my baby) score ([2]; Day 7, Day 0 score 5): 6
- BIMF item 11 (I take a little time each week to do something for myself) score ([2]; Day 7, Day 0 score 5): 6
- BIMF item 17 (I am able to take care of my baby and my other responsibilities) score ([2]; Day 7, Day 0 score 5): 5
- BIMF functional domain Adjustment score ([2]; Day 7, Day 0 score 5, maximum possible 12): 6
- BIMF item 3 (I am comfortable with the way I've chosen to feed my baby) score ([2]; Day 7, Day 0 score 6): 6
- BIMF item 6 (There are people in my life that I can trust to care for my baby when I need a break) score ([2]; Day 7, Day 0 score 6): 6
- BIMF item 8 (I am getting enough adult interaction) score ([2]; Day 7, Day 0 score 6): 6
- BIMF item 12 (I am taking good care of my baby's physical needs) score ([2]; Day 7, Day 0 score 6): 6
- BIMF item 14 (I make good decisions about my baby's health and well being) score ([2]; Day 7, Day 0 score 6): 6
- BIMF item 20 (I am satisfied with the job I am doing as a new mother) score ([2]; Day 7, Day 0 score 6): 5
- BIMF functional domain Self Care score ([2]; Day 7, Day 0 score 9, maximum possible 18): 13
- BIMF functional domain Infant Care score ([2]; Day 7, Day 0 score 12, maximum possible 12): 12
- BIMF functional domain Mother-Child Interaction score ([2]; Day 7, Day 0 score 15, maximum possible 18): 17
- BIMF functional domain Social Support score ([2]; Day 7, Day 0 score 17, maximum possible 18): 18
- BIMF functional domain Management score ([2]; Day 7, Day 0 score 28, maximum possible 36): 33
- BIMF functional domain Psychological Well-being score ([2]; Day 7, Day 0 score 44, maximum possible 60): 53
- BIMF total score improvement ([2]; Day 7, from 92 to 105): 14%
- BIMF TOTAL Δ (Day 7) ([2]; Day 7 vs Day 0): 13
- BIMF functional domain Adjustment % Improvement ([2]; Day 7 vs Day 0): 20.00%
- BIMF functional domain Infant Care % Improvement ([2]; Day 7 vs Day 0): 0.00%
- BIMF functional domain Management % Improvement ([2]; Day 7 vs Day 0): 18%
- BIMF functional domain Self Care % Improvement ([2]; Day 7 vs Day 0): 44%
- BIMF item 3 (I am comfortable with the way I've chosen to feed my baby) Δ (Day 7) ([2]; Day 7 vs Day 0): 0
- BIMF item 5 (I am able to relax and enjoy time with my baby) Δ (Day 7) ([2]; Day 7 vs Day 0): 1
- BIMF item 6 (There are people in my life that I can trust to care for my baby when I need a break) Δ (Day 7) ([2]; Day 7 vs Day 0): 0
- BIMF item 8 (I am getting enough adult interaction) Δ (Day 7) ([2]; Day 7 vs Day 0): 0
- BIMF item 9 (I am getting enough encouragement from other people) Δ (Day 7) ([2]; Day 7 vs Day 0): 1
- BIMF item 10 (I trust my own feelings (instincts) when it comes to taking care of my baby) Δ (Day 7) ([2]; Day 7 vs Day 0): 1
- BIMF item 11 (I take a little time each week to do something for myself) Δ (Day 7) ([2]; Day 7 vs Day 0): 1
- BIMF item 12 (I am taking good care of my baby's physical needs) Δ (Day 7) ([2]; Day 7 vs Day 0): 0
- BIMF item 13 (I am taking good care of my physical needs) Δ (Day 7) ([2]; Day 7 vs Day 0): 1
- BIMF item 14 (I make good decisions about my baby's health and well being) Δ (Day 7) ([2]; Day 7 vs Day 0): 0
- BIMF item 17 (I am able to take care of my baby and my other responsibilities) Δ (Day 7) ([2]; Day 7 vs Day 0): 0
- BIMF item 19 (As time goes on, I am getting better at taking care of my baby) Δ (Day 7) ([2]; Day 7 vs Day 0): 1
- BIMF item 20 (I am satisfied with the job I am doing as a new mother) Δ (Day 7) ([2]; Day 7 vs Day 0): −1
- BPRS Tension improvement ([3]; Day 1): 5
- BPRS Tension improvement ([3]; Discharge): 5
- plasma concentration as % of Cmax ([4]; 10 minutes after administration, whole dose range tested (6 mg, 12 mg, 18 mg)): ≤ 10 % of Cmax
- plasma concentration as % of Cmax ([4]; after 2 hours, whole dose range tested (6 mg, 12 mg, 18 mg)): ≤ 1 % of Cmax
- detectability in the plasma ([4]; after 3 hours, whole dose range tested (6 mg, 12 mg, 18 mg)): no longer detectable
- pharmacokinetic measurements, uptitration dosing schemes ([4]; compared with the single dose results): Substantially similar results
- accumulation upon repeated administration ([4]; repeated administration within a time frame of 1 to 4 hours): No accumulation
- standard criteria for MADRS remission (MADRS total score equal or less than 10) [5]: fulfilled
- standard criteria for MADRS response (at least 50% improvement from baseline) [5]: fulfilled
- Total MADRS improvement ([5]; 2 hr): 24
- Total MADRS score ([5]; 2 hr): 5
- Total MADRS improvement ([5]; Day 1): 29
- Total MADRS score ([5]; Day 1): 0
- Total MADRS improvement ([5]; Day 7): 28
- Total MADRS score ([5]; Day 7): 1
- time to clinical remission after administration ([5]; IDR 6 mg then 12 mg): ≤ 2 h
